Assay results as given in the supplement of paper PMC10307832.

Assays:
Experiment in all cases: relative viability (nuclei count vs DMSO), 5 days (fraction); higher = more cells survive
[1] = compound: CC1=C(C(=NN1)C)CC2=C(C3=C(S2)N(C(=O)N(C3=O)C)CC(C)C)C(=O)N4C[C@@H](CO4)O + Cc1nc(NC(=O)N2CCC[C@H]2C(N)=O)sc1-c1ccnc(C(C)(C)C(F)(F)F)c1 [Alpelisib] (partner 2 µM)
Method in brief: (§1)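 Relative viability equals treated-well nuclei counts divided by vehicle-well nuclei counts. Counts came from 4× images of lung cancer cell lines grown in 1536-well plates for 5 days after pin-tool dosing on the day after seeding. Dosing used one drug alone or a fixed anchor-drug dose plus five library-drug doses (not always all listed) in √10 steps, and values are medians of duplicate plates.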

IDH-C35 + Foretinib = compound: Cc1ccccc1C(C(=O)NC1CCCCC1)N(C(=O)Cn1ccnc1C)c1cccc(F)c1 [IDH-C35] + COc1cc2c(Oc3ccc(NC(=O)C4(C(=O)Nc5ccc(F)cc5)CC4)cc3F)ccnc2cc1OCCCN1CCOCC1 [Foretinib] (partner 0.25 µM)
Method in brief: as §1

IDH-C35 + Crizotinib = compound: Cc1ccccc1C(C(=O)NC1CCCCC1)N(C(=O)Cn1ccnc1C)c1cccc(F)c1 [IDH-C35] + C[C@@H](Oc1cc(-c2cnn(C3CCNCC3)c2)cnc1N)c1c(Cl)ccc(F)c1Cl [Crizotinib] (partner 1 µM)
Method in brief: as §1

[2] = compound: CC1=C(C(=NN1)C)CC2=C(C3=C(S2)N(C(=O)N(C3=O)C)CC(C)C)C(=O)N4C[C@@H](CO4)O + Cc1nc(Nc2ncc(C(=O)Nc3c(C)cccc3Cl)s2)cc(N2CCN(CCO)CC2)n1 [Dasatinib] (partner 0.075 µM)
Method in brief: as §1

Row | Cell Line | relative viability ([1]; first compound 0.0025 µM) | relative viability ([1]; first compound 0.007906 µM) | relative viability ([1]; first compound 0.025 µM) | relative viability ([1]; first compound 0.07906 µM) | relative viability ([1]; first compound 0.25 µM) | relative viability (IDH-C35 + Foretinib; first compound 0.08 µM) | relative viability (IDH-C35 + Foretinib; first compound 0.253 µM) | relative viability (IDH-C35 + Foretinib; first compound 0.8 µM) | relative viability (IDH-C35 + Foretinib; first compound 2.53 µM) | relative viability (IDH-C35 + Foretinib; first compound 8 µM) | relative viability (IDH-C35 + Crizotinib; first compound 0.08 µM) | relative viability (IDH-C35 + Crizotinib; first compound 0.253 µM) | relative viability (IDH-C35 + Crizotinib; first compound 0.8 µM) | relative viability (IDH-C35 + Crizotinib; first compound 2.53 µM) | relative viability (IDH-C35 + Crizotinib; first compound 8 µM) | relative viability ([2]; first compound 0.0025 µM) | relative viability ([2]; first compound 0.007906 µM) | relative viability ([2]; first compound 0.025 µM) | relative viability ([2]; first compound 0.07906 µM) | relative viability ([2]; first compound 0.25 µM)
1 | 201T | 1.04 | 0.995 | 0.996 | 0.971 | 0.949 | 1.12 | 1.06 | 1.08 | 1.01 | 1.05 | 1.03 | 1.02 | 0.982 | 0.999 | 0.997 | 0.579 | 0.624 | 0.6 | 0.59 | 0.551
2 | A549 | 0.838 | 0.96 | 0.744 | 0.758 | 0.961 | 0.881 | 0.863 | 0.968 | 1.05 | 0.835 | 0.819 | 0.794 | 0.814 | 0.669 | 0.744 | – | – | – | – | –
3 | A-427 | 1.02 | 1.21 | 1.08 | 1.03 | 1.07 | 1.01 | 1 | 0.967 | 0.903 | 0.944 | 0.907 | 0.983 | 0.849 | 0.891 | 0.791 | 0.746 | 0.84 | 0.727 | 0.733 | 0.764
4 | ABC-1 | 1.04 | 1.07 | 1.14 | 1.01 | 0.944 | 1.16 | 0.967 | 0.918 | 1.08 | 1.21 | 0.876 | 1.21 | 1.3 | 1.15 | 1.09 | – | 0.346 | – | 0.453 | 0.517
5 | BEN | 0.976 | 1.01 | 0.826 | 0.858 | 0.987 | 0.631 | 0.685 | 0.616 | 0.629 | 0.593 | 0.932 | 0.738 | 0.803 | 0.942 | 0.861 | 0.296 | 0.289 | 0.277 | 0.274 | 0.298
6 | CAL-12T | 1.27 | 1.3 | 1.03 | 1.06 | 1.58 | 1.13 | 1.22 | 1.1 | 1.01 | 1.13 | 0.556 | 0.792 | 0.682 | 0.603 | 0.603 | 0.49 | 0.475 | 0.465 | 0.317 | 0.343
7 | COR-L23 | 0.782 | 0.709 | 0.59 | 0.759 | 0.739 | 0.969 | 0.95 | 0.891 | 1.01 | 1.03 | 0.634 | 0.626 | 0.619 | 0.673 | 0.667 | 0.561 | 0.533 | 0.427 | 0.375 | 0.449
8 | COR-L 105 | 1.03 | 0.896 | 1.12 | 1.01 | 0.999 | 0.948 | 1.16 | 0.898 | 1.07 | 0.898 | 0.745 | 0.942 | 0.688 | 0.72 | 0.921 | 0.477 | 0.298 | 0.34 | 0.273 | 0.341
9 | Calu-6 | 1.3 | 0.898 | 0.892 | 0.895 | 1.09 | 0.884 | 0.899 | 0.908 | 0.919 | 0.868 | 0.765 | 0.745 | 0.804 | 0.833 | 0.742 | – | – | – | – | –
10 | ChaGo-K-1 | – | – | – | – | – | 0.871 | 0.973 | 0.913 | 0.928 | 0.839 | 1.16 | 1.05 | 1.09 | 0.923 | 1.09 | 0.616 | 0.605 | 0.565 | 0.503 | 0.513
11 | EBC-1 | 0.973 | 0.973 | 0.765 | 0.822 | 0.814 | 0.0931 | 0.109 | 0.0986 | 0.108 | 0.109 | 0.181 | 0.187 | 0.168 | 0.194 | 0.161 | – | – | – | – | –
12 | EKVX | 0.906 | 1.07 | 0.835 | 0.923 | 0.734 | 0.832 | 1.02 | 0.75 | 0.703 | 0.614 | 0.953 | 0.74 | 0.688 | 0.935 | 1.08 | 0.61 | 0.53 | 0.544 | 0.302 | 0.303
13 | EMC-BAC-2 | 0.809 | 0.854 | 0.721 | 0.691 | 0.814 | 0.947 | 1.04 | 1.1 | 0.925 | 0.944 | 0.809 | 0.731 | 0.744 | 0.713 | 0.743 | 0.341 | 0.364 | 0.326 | 0.336 | 0.34
14 | EPLC-272H | 0.99 | 0.943 | 0.99 | 0.899 | 0.829 | 0.659 | 0.828 | 0.751 | 0.71 | 0.733 | 1.09 | 0.805 | 0.855 | – | 1.03 | 0.527 | 0.376 | 0.418 | 0.24 | 0.305
15 | H3255 | 0.768 | 0.676 | 0.697 | 0.759 | 0.736 | 1.06 | 0.838 | 0.886 | 1.04 | 0.854 | 0.898 | 0.9 | 0.897 | 0.773 | 0.848 | 0.42 | 0.319 | 0.283 | 0.343 | 0.347
16 | HARA | 1.01 | 0.922 | 0.837 | 0.768 | 0.801 | 0.876 | 0.906 | 0.885 | – | 1.01 | 1.02 | 0.986 | 0.997 | 1.09 | 1.05 | 0.243 | 0.263 | 0.28 | 0.231 | 0.235
17 | HCC-15 | 0.953 | 0.914 | 0.901 | 0.854 | 0.942 | 1.07 | 0.974 | 0.938 | – | 0.869 | 0.854 | 0.804 | 0.802 | 0.814 | 0.731 | 0.605 | 0.601 | 0.682 | 0.574 | 0.656
